Assay results as given in publication PMC9820430, “New Affordable Methods for Large-Scale Isolation of Major Olive Secoiridoids and Systematic Comparative Study of Their Antiproliferative/Cytotoxic Effect on Multiple Cancer Cell Lines of Different Cancer Origins” (International Journal of Molecular Sciences, 2022).
Read-outs that look alike come from different tables or passages of the source.

Assays:
MDA-MB 231 = test: ATP assay under 1% (v/v) O2 versus 20% (v/v) O2, 72 h; type: cell-based, human; details: 1% (v/v) O2 vs 20% (v/v) O2
Experimental: The effects of drugs on cancer cell lines are usually tested under atmospheric conditions (20% (v/v) O2). However, the O2 content in tissues (normoxia) and solid tumors (hypoxia) is ≤ 5% (v/v). In some tumors (i.e., pancreatic tumors) the % O2 is even ≤ 1% (v/v). This affects cell metabolism and signaling pathways which depend on the hypoxia-induced Factor 1A (HIF1A) and it could affect the activity of certain drugs. […] The effects of these three OOPs were tested on the MDA-MB 231, SK-BR-3 and MCF-7 breast cancer and on the AGS stomach cancer cell lines.
Figure 6 Effect of O2 concentration on the antiproliferative/cytotoxic effect of OOPs. […] Cell viability was determined on (A) AGS, (B) MDA-MB 231, (C) MCF-7 and (D) SK-BR-3 cell lines using ATP-based luminescence assay. The results presented are from two independent experiments performed in triplicate. Bar graphs represent the mean cell count ± SE in each treatment group normalized to the control group (i.e., cells treated only with 0.2% (v/v) DMSO). * p < 0.05; ** p ≤ 0.01; *** p ≤ 0.001 (t-test) comparing the two different conditions.

MCF-7 [1] = details: cited from earlier work
A2058 = test: EdU incorporation cell proliferation assay, 24 h; type: cell-based, human; details: for % EdU +ve ± SE (S-phase cells): 24 h treatment at EC50 concentration
Experimental: For this purpose, ten cancer cell lines (i.e., MDA-MB 231, SK-BR-3, MCF-7, A2058, SK-MEL-28, AGS, HepG-2, PANC-1, H1299 and Hela) originating from breast, melanoma, stomach, hepatic, pancreatic, lung and cervical tumors were analyzed in parallel with control samples (i.e., the same cells treated only with 0.2% (v/v) DMSO). […] Subsequently, the treated cells were allowed to incorporate 5-ethynyl-2′-deoxyuridine (EdU) into replicating DNA according to the protocol described in detail in the Experimental Section. EdU, a thymidine analog, can be incorporated into DNA in vivo and detected later by using copper-catalyzed azide–alkyne cycloaddition (click reaction) without prior DNA denaturation. The pool of cells in the S phase can be then easily detected by fluorescence (FL) microscopy or by flow cytometry by analyzing the incorporation of EdU in replicating DNA of single cells. In this study, after EdU incorporation, the nuclei of the entire cell population were stained with Hoechst and imaged by confocal microscopy (Experimental Section). EdU-positive nuclei, marked by green FL, as well as the total number of nuclei, marked by blue FL, were enumerated by applying the Icy image analysis algorithm on the digital images acquired by confocal microscopy.
Human cancer cells were plated onto sterile glass coverslips (10-mm diameter, 5161063, ThermoFisher Scientific, Waltham, MA, USA) in 24-well tissue culture plates, at a density 5 times the density of cells seeded in 96-well plate and at a final medium volume of 500 μL. In order to obtain homogeneous plating, 250 μL of the medium was added directly to the wells already containing coverslips. Using a tip perpendicularly, coverslips were pressed in order to ensure their attachment to the bottom of the well. The cells were then seeded by adding 250 μL of single-cell suspension drop by drop following a cross path. Immediately after seeding, the plate was shaken back and forth at least ten times to achieve homogeneous plating. The cells were allowed to adhere overnight (~16 h) at 37 °C and 5% (v/v) CO2. The next day, a volume of 500 μL fresh medium was added to each well and the treatment with OOPs was initiated by adding directly to the wells 2 μL of OOPs from the 500× stock in DMSO and immediately mixed afterward by pipetting. […] Control cells were prepared under the same experimental conditions using DMSO instead of the OOPs’ solutions in DMSO at the same final concentration (0.2% (v/v) DMSO). […] Each condition was performed in duplicate. After treatment with the OOPs, live proliferating mammalian cells were labeled with 5-ethynyl-2’-deoxyuridine (EdU), a nucleoside analog of thymidine, using the Cell proliferation kit III (EdU-FM, PK-CA724-488FM, Promokine, Heidelberg, Germany). More specifically, a 20 μM EdU solution from a 10 mM stock in DMSO was prepared in a fresh culture medium. Culture supernatant was removed from treated cells to leave only 250 μL. An equal volume of 20 μM EdU solution was added and mixed with the medium to obtain a 10 μΜ EdU final concentration. The treated cells were incubated for the desired time of pulse length (2–4 h) under conditions optimal for each cell type depending on each cell line’s doubling time. Following incubation, cells were washed twice with PBS, then fixed with 4% (w/v) paraformaldehyde in PBS for 15 min at room temperature (RT), and subsequently washed twice with 3% (w/v) BSA for 5 min each time. Cells were permeabilized by incubation (20 min, RT, in the dark) with 0.5% (v/v) Triton-X 100 in PBS. Following permeabilization the cells were washed twice with 3% (w/v) BSA in PBS and incubated for 30 min with the reaction cocktail, according to the instructions of the Cell proliferation kit III (EdU-488; FM). After staining for replicating DNA, the cells were washed three times with 3% (w/v) BSA in PBS, and were then incubated (10 min, at RT) with Hoechst 33342 in PBS (1:10.000) to visualize all the nuclei. […]

[2] = test system: MCF-7/TR (tamoxifen-resistant); set-up: method as in Mazzei et al. (2020) 27; details: ref Mazzei et al. (2020) 27; cited from earlier work
MCF-7 [3] = test: EdU incorporation cell proliferation assay, 24 h; type: cell-based, human; details: for % EdU +ve ± SE (S-phase cells): 24 h treatment at EC50 concentration
Experimental: For this purpose, ten cancer cell lines (i.e., MDA-MB 231, SK-BR-3, MCF-7, A2058, SK-MEL-28, AGS, HepG-2, PANC-1, H1299 and Hela) originating from breast, melanoma, stomach, hepatic, pancreatic, lung and cervical tumors were analyzed in parallel with control samples (i.e., the same cells treated only with 0.2% (v/v) DMSO). […] Subsequently, the treated cells were allowed to incorporate 5-ethynyl-2′-deoxyuridine (EdU) into replicating DNA according to the protocol described in detail in the Experimental Section. […] In this study, after EdU incorporation, the nuclei of the entire cell population were stained with Hoechst and imaged by confocal microscopy (Experimental Section). EdU-positive nuclei, marked by green FL, as well as the total number of nuclei, marked by blue FL, were enumerated by applying the Icy image analysis algorithm on the digital images acquired by confocal microscopy.

SK-BR-3 cells = test: Deactivation in culture medium (direct addition vs pre-incubation), ATP assay 48 h; type: cell-based, human; details: 20 and 40 μM, 15 min pre-incubation in culture medium vs direct addition
Experimental: The other OOPs tested were not affected similarly (Figure S3B). […] It was therefore decided for all the experiments presented in this manuscript and the assays performed to calculate the EC50 values to add all the OOPs tested directly to the culture medium.
Viable cell numbers were determined using the ATP-based luminescence assay after 48 h of treatment. The compound was added to the cells either directly or after incubation with the culture medium for 15 min. The results presented are from four independent experiments performed in triplicate. Bar graphs represent the mean cell count ± SE in each treatment group normalized to the control group (i.e., cells treated only with 0.2% (v/v) DMSO). * p < 0.05; ** p ≤ 0.01 (t-test) comparing the two different treatment methods.

Hela cells = details: cited from earlier work
A375 cells = test system: A375 cells; set-up: method as in PMID 35630786; details: 72 h treatment; cited from earlier work
Caco-2 cells = details: cited from earlier work
[4] = 24 h at EC50, normalized with the control

Compound	bioactivity under hypoxia versus atmospheric O2 (MDA-MB 231)	% EdU +ve ± SE (S-phase cells) (A2058)	% EdU +ve ± SE (S-phase cells) (MCF-7 [3])	EC50 (A375 cells)	further results
COC(=O)C1=COC(C)[C@@H](C=O)[C@@H]1CC(=O)OCCc1ccc(O)c(O)c1 (mixture of isomers) [3a,b, oleuropein aglycone]	more resistant	23.7 ± 5.8%	21.1 ± 2.0%	–	EC50 (MCF-7 [1]; five days of treatment, ref Menendez et al. (2007) 17, read-out: concentration reducing cell viability by 50%): > 100 µM; % Inhibition ± SE of cell proliferation (A2058; [4]): 15.0 ± 10.3%; EC50 [2]: 70 µM; % Inhibition ± SE of cell proliferation (MCF-7 [3]; [4]): 19.3 ± 0.5%
C/C=C(/C=O)[C@@H](CC=O)CC(=O)OCCc1ccc(O)cc1 [compound 1, oleocanthal]	–	25.5 ± 5.3%	21.6 ± 4.0%	67.5 ± 1.9 µM	stability/deactivation in the cell culture medium (SK-BR-3 cells): partially deactivated; EC50 (Hela cells): > 150 µM; EC50 (Caco-2 cells): > 150 µM; EC50 (MCF-7 [1]; 48 or 72 h, different culture conditions, read-out: EC50): 18 to 40 µM
C/C=C(/C=O)[C@@H](CC=O)CC(=O)OCCc1ccc(O)c(O)c1 [compound 2, oleacein]	–	–	–	113 ± 4.9 µM	–
ligstroside aglycone [4a,b]	more resistant	–	–	–	–
